Data taken from patent USRE48267E1, “Variants of C-type natriuretic peptide” (priority 2009, dated 2020).
Where two headings read alike, the source gives them in different places. Where a SMILES comes first, the peptide text is derived from it. Bridges are numbered along the chain shown (N, C = ends).

Columns and labels:
[1] = biological target: Recombinant human NEP (Homo sapiens, UniProt P08473); experiment: in vitro NEP cleavage assay (disappearance of non-cleaved CNP variant); conditions: for NEP Cleavage (t1/2, min): 100 uM peptide, 1 ug/mL NEP, 0.1 M Tris pH 7, 37° C., adjusted t1/2, CNP22 normalized to 80 min
How it was run: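 Recombinant human NEP (1 ug/mL final) incubated with 100 uM CNP variant in 0.1 M Tris, pH 7, at 37° C for various times, then quenched with EDTA (10 mM final) and heat. Samples reduced and analysed by HPLC and mass spectrometry. Half-life derived from loss of intact variant over time.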

[2] = biological target: T1, NPR-B (Mus musculus, UniProt Q6VVW5); experiment: stimulation of cGMP production in NIH3T3 cells; assay type: cell-based, murine; conditions: normalized to cell number and cGMP production in the presence of 1 uM wtCNP22; for cGMP Response rel. to 1 uM CNP22, 10 nM: NIH3T3 cells exposed to 10 nM peptide; for cGMP Response rel. to 1 uM CNP22, 1 uM: NIH3T3 cells exposed to 1 uM peptide
T1 construct: Murine NIH3T3 cells express endogenously the CNP signaling receptor, NPR-B; endogenous in cells; host or cells: NIH3T3
T1 sequence (Q6VVW5 17-1047): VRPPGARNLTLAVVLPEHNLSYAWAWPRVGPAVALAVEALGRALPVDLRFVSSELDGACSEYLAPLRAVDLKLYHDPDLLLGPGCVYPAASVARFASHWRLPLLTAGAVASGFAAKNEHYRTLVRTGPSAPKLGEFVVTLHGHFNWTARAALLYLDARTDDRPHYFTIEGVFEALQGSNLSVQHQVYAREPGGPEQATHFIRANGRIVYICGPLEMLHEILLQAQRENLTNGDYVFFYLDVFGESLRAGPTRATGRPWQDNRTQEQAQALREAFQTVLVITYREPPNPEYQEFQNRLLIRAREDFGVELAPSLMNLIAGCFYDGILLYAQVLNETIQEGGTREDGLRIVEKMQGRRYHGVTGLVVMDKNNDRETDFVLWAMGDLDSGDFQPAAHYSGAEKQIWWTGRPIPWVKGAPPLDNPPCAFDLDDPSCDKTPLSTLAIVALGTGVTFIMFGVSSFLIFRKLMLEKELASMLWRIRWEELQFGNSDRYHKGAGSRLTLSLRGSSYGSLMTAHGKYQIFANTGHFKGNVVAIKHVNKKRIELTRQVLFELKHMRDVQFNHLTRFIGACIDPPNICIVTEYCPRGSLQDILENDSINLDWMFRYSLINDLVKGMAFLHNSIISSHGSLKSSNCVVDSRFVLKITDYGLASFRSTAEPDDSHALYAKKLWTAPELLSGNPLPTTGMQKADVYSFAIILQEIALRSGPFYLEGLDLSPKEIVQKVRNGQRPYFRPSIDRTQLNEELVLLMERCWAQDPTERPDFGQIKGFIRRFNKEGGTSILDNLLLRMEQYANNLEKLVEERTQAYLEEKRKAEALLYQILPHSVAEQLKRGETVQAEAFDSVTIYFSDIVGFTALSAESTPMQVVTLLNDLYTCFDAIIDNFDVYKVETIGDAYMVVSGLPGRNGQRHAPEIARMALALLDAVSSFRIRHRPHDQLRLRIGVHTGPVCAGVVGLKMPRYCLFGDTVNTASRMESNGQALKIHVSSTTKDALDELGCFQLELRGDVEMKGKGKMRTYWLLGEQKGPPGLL
Method: To determine the functional activity of CNP variants, the production of cGMP was measured in NIH3T3 cells exposed to the CNP variants. Murine NIH3T3 cells express endogenously the CNP signaling receptor, NPR-B, which shares 98% protein sequence identity with human NPR-B. NIH3T3 cells were cultured in high glucose Dulbecco's Modified Eagle Medium supplemented with 10% fetal calf serum and antibiotics at 37° C. with 5% CO2). Twenty four to 48 hours prior to signaling, cells were passaged to 12-well plates with a density of 2-5×10^5 cells per well at the time of the assay. CNP variants were resuspended in 1 mM HCl to a stock concentration of 1 mg/mL (455 uM for wtCNP22) and subsequently diluted to a 30 uM working stock solution with phosphate-buffered saline (PBS). Ten-fold serial dilutions were prepared in phosphate-buffered saline. Culture medium was removed from the cells and replaced with 0.4 mL PBS/Dulbecco's modified Eagle medium (50/50, v/v) containing 0.75 mM isobutylmethylxanine. Plates were incubated at 37° C., 5% CO2 for 15 minutes before addition of 0.2 mL CNP variant in PBS and continued incubation at 37° C. for 15 minutes. Reactions were stopped by the addition of 0.2 mL lysis buffer supplied with the CatchPoint cGMP assay kit (Molecular Devices), and cGMP production was determined with the CatchPoint cGMP Assay (Molecular Devices). All stimulation experiments were performed in duplicate.
Tables 1-4 summarize the ability of CNP variants having backbone or side chain modifications, amino acid substitutions, N-terminal amino acid extensions, and/or N-terminal PEGylation, respectively, to stimulate cGMP production in NIH3T3 cells. In all four tables, the values for cGMP production in NIH3T3 cells exposed to 10 nM or 1 uM CNP variant are normalized to cell number and cGMP production in the presence of 1 uM wtCNP22.

[3] = biological target: T2, NPR-B (natriuretic peptide receptor B), murine, expressed endogenously on NIH3T3 cells (murine, UniProt Q6VVW5 17-1047); experiment: cell-based or functional assay
T2 sequence (looked up): T1 sequence (Q6VVW5 17-1047)

Chain of Recombinant human NEP (P08473 whole entry): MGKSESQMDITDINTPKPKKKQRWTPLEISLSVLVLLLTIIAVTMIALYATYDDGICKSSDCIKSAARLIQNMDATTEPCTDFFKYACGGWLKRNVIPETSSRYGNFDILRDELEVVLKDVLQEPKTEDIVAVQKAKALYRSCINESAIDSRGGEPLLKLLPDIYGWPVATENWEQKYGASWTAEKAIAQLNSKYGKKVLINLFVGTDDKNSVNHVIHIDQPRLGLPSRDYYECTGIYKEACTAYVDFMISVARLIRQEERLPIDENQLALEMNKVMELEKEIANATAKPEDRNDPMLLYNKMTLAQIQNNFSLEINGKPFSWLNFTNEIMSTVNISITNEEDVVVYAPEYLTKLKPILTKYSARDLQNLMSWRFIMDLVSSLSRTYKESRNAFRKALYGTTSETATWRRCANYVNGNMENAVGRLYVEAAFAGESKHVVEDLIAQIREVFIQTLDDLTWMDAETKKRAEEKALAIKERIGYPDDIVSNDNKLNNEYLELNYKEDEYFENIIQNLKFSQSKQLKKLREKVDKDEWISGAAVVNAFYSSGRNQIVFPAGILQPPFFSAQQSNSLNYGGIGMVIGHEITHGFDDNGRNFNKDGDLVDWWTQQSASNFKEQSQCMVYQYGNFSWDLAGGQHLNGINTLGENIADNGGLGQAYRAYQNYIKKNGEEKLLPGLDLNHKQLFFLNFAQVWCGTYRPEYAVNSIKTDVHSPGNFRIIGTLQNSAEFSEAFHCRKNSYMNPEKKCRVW

Molecule | NEP Cleavage (t1/2, min) [1] | cGMP Response rel. to 1 uM CNP22, 10 nM [2] | cGMP Response rel. to 1 uM CNP22, 1 uM [2] | resistance to NEP cleavage (in words) [1] | other results
CC[C@H](C)[C@@H]1NC(=O)[C@H](CCCNC(=N)N)NC(=O)[C@H](CC(=O)O)NC(=O)[C@H](CC(C)C)NC(=O)[C@H](CCCCN)NC(=O)[C@H](CC(C)C)N(C)C(=O)CNC(=O)[C@H](Cc2ccccc2)NC(=O)[C@@H](NC(=O)CNC(=O)[C@H](CCCCN)NC(=O)[C@H](CO)NC(=O)[C@H](CC(C)C)NC(=O)CN)CSSC[C@@H](C(=O)O)NC(=O)CNC(=O)[C@H](CC(C)C)N(C)C(=O)CNC(=O)[C@H](CO)NC(=O)[C@H](CCSC)NC(=O)[C@H](CO)NC(=O)CNC1=O [Analog K, CNP22, N-methyl-L9, N-methyl-L20] | 80 min | 1 | 1 |  | 
CC[C@H](C)[C@@H]1NC(=O)[C@H](CCCNC(=N)N)NC(=O)[C@H](CC(=O)O)NC(=O)[C@H](CC(C)C)NC(=O)[C@H](CCCCN)NC(=O)[C@H](CC(C)C)NC(=O)CNC(=O)[C@H](Cc2ccccc2)NC(=O)[C@@H](NC(=O)CNC(=O)[C@H](CCCNC(=N)N)NC(=O)[C@H](CO)NC(=O)[C@H](CC(C)C)NC(=O)CN)CSSC[C@@H](C(=O)O)NC(=O)CNC(=O)[C@H](CC(C)C)NC(=O)CNC(=O)[C@H](CO)NC(=O)[C@H](CCSC)NC(=O)[C@H](CO)NC(=O)[C@H](CC(N)=O)NC1=O [Analog BJ, CNP22, K4R, G15N] (H-GLSRGCFGLKLDRINSMSGLGC-OH; disulfide 6-22; N-terminus and C-terminus assumed) |  | 4 | 41 | greatest resistance to NEP cleavage | 
CC[C@H](C)[C@@H]1NC(=O)[C@H](CCCNC(=N)N)NC(=O)[C@H](CC(=O)O)NC(=O)[C@H](CC(C)C)N(C)C(=O)[C@H](CCCCN)NC(=O)[C@H](CC(C)C)N(C)C(=O)CNC(=O)[C@H](Cc2ccccc2)NC(=O)[C@@H](NC(=O)CNC(=O)[C@H](CCCCN)NC(=O)[C@H](CO)NC(=O)[C@H](CC(C)C)NC(=O)CN)CSSC[C@@H](C(=O)O)NC(=O)CNC(=O)[C@H](CC(C)C)NC(=O)CNC(=O)[C@H](CO)NC(=O)[C@H](CCSC)NC(=O)[C@H](CO)NC(=O)CNC1=O [Analog M, CNP22, N-methyl-L9, N-methyl-L11] | >>160 min | 1 | 11 | greatest resistance to NEP cleavage | 
CC[C@H](C)[C@@H]1NC(=O)[C@H](CCCNC(=N)N)NC(=O)[C@H](CC(=O)O)NC(=O)[C@H](CC(C)C)N(C)C(=O)[C@H](CCCCN)NC(=O)[C@H](CC(C)C)N(C)C(=O)CNC(=O)[C@H](Cc2ccccc2)NC(=O)[C@@H](NC(=O)CNC(=O)[C@H](CCCCN)NC(=O)[C@H](CO)NC(=O)[C@H](CC(C)C)NC(=O)CN)CSSC[C@@H](C(=O)O)NC(=O)CNC(=O)[C@H](CC(C)C)N(C)C(=O)CNC(=O)[C@H](CO)NC(=O)[C@H](CCSC)NC(=O)[C@H](CO)NC(=O)CNC1=O [Analog L, CNP22, N-methyl-L9, N-methyl-L11, N-methyl-L20] |  | 18 | 10 | substantially shorter half-life | 
CC[C@@H](C)[C@H]1NC(=O)[C@@H](CCCNC(=N)N)NC(=O)[C@@H](CC(=O)O)NC(=O)[C@@H](CC(C)C)NC(=O)[C@@H](CCCCN)NC(=O)[C@@H](CC(C)C)NC(=O)CNC(=O)[C@@H](Cc2ccccc2)NC(=O)[C@H](NC(=O)CNC(=O)[C@@H](CCCCN)NC(=O)[C@@H](CO)NC(=O)[C@@H](CC(C)C)NC(=O)CN)CSSC[C@H](C(=O)O)NC(=O)CNC(=O)[C@@H](CC(C)C)NC(=O)CNC(=O)[C@@H](CO)NC(=O)[C@@H](CCSC)NC(=O)[C@@H](CO)NC(=O)CNC1=O [Analog N, D-CNP22 (all D-amino acids)] | >>160 min | 2 | 1 |  | resistance to NEP cleavage (in words) ([1]; in vitro NEP assay, assay period 160 minutes): greatest resistance to NEP cleavage
CC[C@H](C)[C@@H]1NC(=O)[C@H](CCCNC(=N)N)NC(=O)[C@H](CC(=O)O)NC(=O)[C@H](CC(C)C)NC(=O)[C@H](CCCCN)NC(=O)[C@H](CC(C)C)NC(=O)CNC(=O)[C@H](Cc2cccc(Cl)c2)NC(=O)[C@@H](NC(=O)CNC(=O)[C@H](CCCCN)NC(=O)[C@H](CO)NC(=O)[C@H](CC(C)C)NC(=O)CN)CSSC[C@@H](C(=O)O)NC(=O)CNC(=O)[C@H](CC(C)C)NC(=O)CNC(=O)[C@H](CO)NC(=O)[C@H](CCSC)NC(=O)[C@H](CO)NC(=O)CNC1=O [Analog G] | 135 min | 17 | 93 |  | resistance to cleavage at the Cys6-Phe7 bond relative to wtCNP22 [1]: resistance or improved resistance; half-life compared to those for Analogs A, B, F and H ([1]; human): 1.5-2.5 fold; half-life in comparison to wtCNP22 ([1]; human): about 1.5 times
CC[C@H](C)[C@@H]1NC(=O)[C@H](CCCNC(=N)N)NC(=O)[C@H](CC(=O)O)NC(=O)[C@H](CC(C)C)NC(=O)[C@H](CCCCN)NC(=O)[C@H](CC(C)C)NC(=O)CNC(=O)[C@H](Cc2ccccc2)NC(=O)[C@@H](NC(=O)CNC(=O)[C@H](CCCNC(=N)N)NC(=O)[C@H](CO)NC(=O)[C@H](CC(C)C)NC(=O)CN)CSSC[C@@H](C(=O)O)NC(=O)CNC(=O)[C@H](CC(C)C)NC(=O)CNC(=O)[C@H](CO)NC(=O)[C@H](CCSC)NC(=O)[C@H](CO)NC(=O)[C@H](CO)NC1=O [Analog BK, CNP22, K4R, G15S] (H-GLSRGCFGLKLDRISSMSGLGC-OH; disulfide 6-22; N-terminus and C-terminus assumed) | ≥160 min | 13 ± 1 | 71 ± 11 | greatest resistance to NEP cleavage | 
GLSKGCXGLKLDRIGSMSGLGC (N-methyl-Phe at 7) [CNP22, N-methyl-F7 (methylated amide)] |  |  |  |  | cGMP response rel. to 1 uM CNP22; 10 nM peptide, NIH3T3 cells [3]: 2 rel. to 1 uM CNP22 (100); cGMP response rel. to 1 uM CNP22; 1 uM peptide, NIH3T3 cells [3]: 38 rel. to 1 uM CNP22 (100)
GLSKGCFGLKLDRIGSMSGLGC [CNP22 (wild-type human CNP-22)] |  |  |  |  | cGMP response rel. to 1 uM CNP22; 10 nM peptide, NIH3T3 cells [3]: 46 rel. to 1 uM CNP22 (100); cGMP response rel. to 1 uM CNP22; 1 uM peptide, NIH3T3 cells [3]: 100 rel. to 1 uM CNP22 (100)
